Test results as given in patent publication US6608086B2, “Dihydropyridines and new uses thereof” (Synaptic Pharmaceutical Corporation, priority 1993, dated 2003).
Structures can show the parent of a compound that is named as a salt. Where two headings read alike, the source gives them in different places.

What was measured:
[1] = target: T1, α1B Human Adrenergic Receptor (Homo sapiens, UniProt P35368); assay: Radioligand binding, [3H]prazosin, cloned human α1B adrenergic receptor
T1 construct: The entire coding region of α1B (1563 bp); expressed in transfected cells
T1 sequence (P35368 1-520): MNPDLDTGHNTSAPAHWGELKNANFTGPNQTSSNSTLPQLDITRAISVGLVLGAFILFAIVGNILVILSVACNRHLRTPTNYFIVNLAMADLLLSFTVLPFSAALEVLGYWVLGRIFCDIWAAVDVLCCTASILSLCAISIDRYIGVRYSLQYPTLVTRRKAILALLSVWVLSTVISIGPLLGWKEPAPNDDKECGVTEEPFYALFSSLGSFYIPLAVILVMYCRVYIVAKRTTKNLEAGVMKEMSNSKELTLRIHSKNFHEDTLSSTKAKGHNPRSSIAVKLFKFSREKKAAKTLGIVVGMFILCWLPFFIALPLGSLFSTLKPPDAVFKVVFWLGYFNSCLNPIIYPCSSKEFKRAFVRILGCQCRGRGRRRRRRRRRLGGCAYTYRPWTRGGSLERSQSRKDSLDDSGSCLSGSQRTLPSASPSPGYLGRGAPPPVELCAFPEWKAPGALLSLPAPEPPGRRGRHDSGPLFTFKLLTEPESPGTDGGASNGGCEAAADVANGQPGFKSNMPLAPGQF
In short: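 Membranes from stably transfected LM(tk−) cells, resuspended in 50 mM Tris-HCl, 1 mM MgCl2, 0.1% ascorbic acid, pH 7.5, were incubated with 0.5 nM [3H]prazosin for 20 min at 37° C. Nonspecific binding defined with 10 μM phentolamine; bound ligand separated by GF/B filtration.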

human prostatic tissue = assay: In vitro human prostate model: block of phenylephrine-induced contraction of human prostatic tissue; assay type: cell-based; conditions: block of phenylephrine-induced contraction of human prostate
Source text: The protocol for these experiments is given below.
Functional Properties of α1 Antagonists in the Human Prostate
The efficacy of α1 adrenergic antagonists for the treatment of benign prostatic hyperplasia (BPH) is related to their ability to elicit relaxation of prostate smooth muscle. An index of this efficacy can be obtained by determining the potency of al antagonists to antagonize the contraction of human prostatic tissue induced by an α1 agonist “in vitro”. Furthermore, by comparing the potency of subtype selective α1 antagonists in binding assays using human α1 receptors with their potency to inhibit agonist-induced smooth muscle contraction, it is possible to determine which of the α1 adrenergic receptor subtypes is involved in the contraction of prostate smooth muscle.
Prostatic adenomas were obtained at the time of surgery from patients with symptomatic BPH. […] The baths were maintained at 37° C. and continuously oxygenated with 5% CO2 and 95% O2. Isometric tension was measured with a Grass Instrument FT03 force transducer interfaced with a computer. Tissue strips were contracted with varying concentrations of phenylephrine after incubating for 20 minutes in the absence and presence of at least three different concentrations of antagonist. Dose-response curves for phenylephrine were constructed, and the antagonist potency (pA2) was estimated by the dose-ratio method. The concentration of some antagonists in the tissue bath was assessed by measuring the displacement of [3H]prazosin by aliquots of the bath medium, using membrane preparations of the cloned human α1C receptor. This control was necessary to account for losses of antagonist due to adsorption to the tissue bath and/or metabolism during the time the antagonists were equilibrated with the prostate tissue.

[2] = cloned human receptor in LM(tk-) cell membranes, SEM and n in lines below, read-out: pKi alpha-1 1b (converted)
[3] = pKi alpha-1 1b, cloned human receptor in LM(tk-) cell membranes, SEM and n in lines below
[4] = pKi alpha-1 1b, cloned human α1B receptor, LM(tk−) cell membranes

| SMILES | Ki [1, 2] | Ki [1, 4] | melting point | other results |
| --- | --- | --- | --- | --- |
| CCC1=C(C(=O)NCCCN2CCC(c3ccccc3)(c3ccccc3)CC2)C(c2ccc([N+](=O)[O-])cc2)C(C(=O)OC)=C(C)N1 (stereo not shown) [Example 73, 2-Ethyl-1,4-dihydro-5-methoxycarbonyl-6-methyl-4-(4-nitro) phenyl-3-(N-(3-(4,4-diphenylpiperidin-1-yl)propyl))carboxamidopyridine] | 148 nM |  |  | pA2 (human prostatic tissue): 8.56 ± 0.07 |
| CCC1=C(C(=O)NCCCN2CCC(c3ccccc3)(c3ccccc3)CC2)C(c2ccc([N+](=O)[O-])cc2)C(C(N)=O)=C(C)N1 (stereo not shown) [Example 81, 5-carboxamido-2-ethyl-1,4-dihydro-6-methyl-4-(4-nitro)phenyl-3-(N-(3-(4,4-diphenylpiperidin-1-yl)propyl))carboxamidopyridine hydrochloride] |  |  |  | Ki [1, 3]: 240 nM; pA2 (human prostatic tissue): 8.60 ± 0.03 |
| CCC1=C(C(N)=O)C(c2ccc([N+](=O)[O-])cc2)C(C(=O)NCCCN2CCC(C#N)(c3ccccc3)CC2)=C(CC)N1 (single isomer, unassigned; (+)) [(+)-102] |  | 1230 nM |  | pA2 (human prostatic tissue): 10.43 ± 0.14 |
| CCC1=C(C(=O)NCCCN2CCC(c3ccccc3)(c3ccccc3)CC2)C(c2ccc([N+](=O)[O-])cc2)C(C(N)=O)=C(COCCN=[N+]=[N-])N1 (stereo not shown) [Example 149, 2-((2-Azidoethyl)oxy)methyl-3-carboxamido-6-ethyl-1,4-dihydro-4-(4-nitro) phenyl-5-(N-(3-(4,4-diphenylpiperidin-1-yl)propyl))carboxamidopyridine] |  | 245 nM | 87 to 91 °C |  |
| CC1=C(C(N)=O)C(c2ccc(S(C)(=O)=O)cc2)C(C(=O)NCCCN2CCC(c3ccccc3)(c3ccccc3)CC2)=C(C)N1 (stereo not shown) [Example 115, 5-Carboxamido-1,4-4-dihydro-4-(4-methanesufonylphenyl)-2,6-dimethyl-3-(N-(3-(4,4-diphenylpiperidin-1-yl)propyl)carboxamido)-pyridine] |  | 1450 nM | 206 to 209 °C |  |
| COC(=O)C1=C(C)NC(C)=C(C(=O)NCCCN2CCC(c3ccccc3)(c3ccccc3)CC2)C1c1ccc(I)cc1 (stereo not shown) [Example 13, 1,4-Dihydro-4-(4-iodophenyl)-3-methoxycarbonyl-2,6-dimethyl-5-(N-(3-(4,4-diphenylpiperidin-1-yl)propyl)carboxamido)pyridine] | 166 nM |  | 228 to 230 °C (dec.) |  |
| COC(=O)C1=C(C)NC(C)=C(C(=O)NCCCN2CCC(c3ccccc3)(c3ccccc3)CC2)C1c1cccnc1 (stereo not shown) [Example 14, 1,4-Dihydro-3-methoxycarbonyl-2.6-dimethyl-5-(N-(3-(4,4-diphenylpiperidin-1-yl)propyl)carboxamido)-4-(3-pyridyl)pyridine] |  |  | 244 to 247 °C (dec.) | Ki [1, 3]: 2630 nM |
| CCC1=C(C(=O)NC)C(c2ccc([N+](=O)[O-])cc2)C(C(=O)NCCCN2CCC(c3ccccc3)(c3ccccc3)CC2)=C(CC)N1 (stereo not shown) [Example 128, 2,6-Diethyl-1,4-dihydro-5-(N-methyl)carboxamido-4-(4-nitrophenyl)-3-{N-[3-(4,4-diphenylpiperidin-1-yl)propyl]}carboxamidopyridine] |  | 1050 nM | 123 to 126 °C | pA2 (human prostatic tissue): 8.21 ± 0.06 |
| COC(=O)C1=C(C)NC(C)=C(C(=O)NCCCN2CCC(c3ccccc3)(c3ccccc3)CC2)C1c1ccc(-c2ccccc2)cc1 (stereo not shown) [Example 7] | 288 nM |  | 136 to 139 °C |  |
| COC(=O)C1=C(C)NC(C)=C(C(=O)NCCCN2CCC(c3ccccc3)(c3ccccc3)CC2)C1c1cc[n+]([O-])cc1 (stereo not shown) [Example 9, 1,4-Dihydro-3-methoxycarbonyl-2,6-Dimethyl-4-(1-oxido-4-pyridyl)-5-(N-(3-(4,4-diphenylpiperidin-1-yl)propyl)carboxamido)pyridine] |  |  | 206 to 209 °C (dec.) | Ki [1, 3]: 339 nM |
| COC(=O)C1=C(C)NC(C)=C(C(=O)NCCCN2CCC(c3ccccc3)(c3ccccc3)CC2)C1c1ccoc1 (stereo not shown) [Example 23, 4-(3-Furyl)-1,4-dihydro-3-methoxycarbonyl-2,6-dimethyl-5-(N-(3-(4,4-diphenylpiperidin-1-yl)propyl)carboxamide)pyridine] |  |  | 225 to 226 °C | Ki [1, 3]: 214 nM |
| CC1=C(C(=O)NCCCN2CCC(c3ccccc3)(c3ccccc3)CC2)C(c2ccc([N+](=O)[O-])cc2)C(C(=O)NC(C)C)=C(C)N1 (stereo not shown) [Example 156, 1,4-Dihydro-3-(N-isopropyl) carboxamido-2,6-dimethyl-4-(4-nitrophenyl)-5-{N-[3-(^414-diphenylpiperidin-1-yl)propyl]}carboxamidopyridine] |  | 676 nM | 123 to 125 °C |  |
| COC(=O)C1=C(C)NC(C)=C(C(=O)NCCCN2CCC(c3ccccc3)(c3ccccc3)CC2)C1c1ccc(Cl)c(Cl)c1 (stereo not shown) [Example 24, 4-(3,4-Dichlorophenyl)-1,4-dihydro-3-methoxycarbonyl-2,6-dimethyl-5-(3-(D 44-diphenylpiperidin-1-yl)propylcarboxamido)pyridine] | 115 nM |  | 177 to 178 °C |  |
| CC1=C(C(=O)NCCCN2CCC(c3ccccc3)(c3ccccc3)CC2)C(c2ccc([N+](=O)[O-])cc2)C2=C(CCCC2=O)N1 (stereo not shown) [Example 40, 1,4,5,6,7,8-Hexahydro-2-methyl-4-(4-nitrophenyl)-5-oxo-3-{N-[3-(4,4-diphenylpiperidin-1-yl)propyl]}carboxamidoquinoline] |  |  | 143 to 146 °C | Ki [1, 3]: 275 nM |
| CCC1=C(C(N)=O)C(c2ccc([N+](=O)[O-])cc2)C(C(=O)NCCCN2CCC(c3ccccc3)(c3ccccc3)CC2)=C(C)N1 (stereo not shown) [Example 41, 3-Carboxamido-2-ethyl-1,4-dihydro-6-methyl-4-(4-nitrophenyl)-3-{N-[3-(4,4-diphenylpiperidin-1-yl)propyl]}carboxamidopyridine] |  |  | 120 to 124 °C | Ki [1, 3]: 295 nM |
| CCC1=C(C(=O)OCCC#N)C(c2ccc([N+](=O)[O-])cc2)C(C(=O)NCCCN2CCC(c3ccccc3)(c3ccccc3)CC2)=C(COCCN=[N+]=[N-])N1 (stereo not shown) [Example 141] |  | 33.1 nM | 63 to 67 °C |  |
| COC(=O)C1=C(C)NC(C)=C(C(=O)NCCCN2CCC(c3ccccc3)(c3ccccc3)CC2)C1c1ccc(C#N)cc1 (stereo not shown) [Example 12, 4-(4-Cyanophenyl)-1,4-dihydro-3-methoxycarbonyl-2,6-dimethyl-5-(N-(3-(4,4-diphenylpiperidin-1-yl)propyl)carboxamido)pyridine] | 151 nM |  | 115 to 118 °C |  |
| CC(C)C1=C(C(N)=O)C(c2ccc([N+](=O)[O-])cc2)C(C(=O)NCCCN2CCC(c3ccccc3)(c3ccccc3)CC2)=C(C(C)C)N1 (stereo not shown) [Example 127] |  |  | 76 to 80 °C | pKi alpha-1 1b ([1]; cloned human α1B receptor, LM(tk−) cell membranes): 6.79 |
| COC(=O)C1=C(C)NC(C)=C(C(=O)NCCCN2CCC(c3ccccc3)(c3ccccc3)CC2)C1c1cc(OC)c(OC)c(OC)c1 (stereo not shown) [Example 27] | 324 nM |  | 187 to 188 °C |  |
| COC(=O)C1=C(C)NC(C)=C(C(=O)NCCCN2CCC(c3ccccc3)(c3ccccc3)CC2)C1c1ccc(OC)cc1 (stereo not shown) [Example 21, 1,4-Dihydro-3-methoxycarbonyl-4-(4-Methoxyphenyl)-2,6-dimethyl-5-(N-(3-(4,4-diphenylpiperidin-1-yl)propyl)carboxamido)pyridine] | 204 nM |  | 212 to 213 °C |  |
| COc1cccc(C2C(C(N)=O)=C(C)NC(C)=C2C(=O)NCCCN2CCC(c3ccccc3)(c3ccccc3)CC2)c1 (stereo not shown) [Example 117, 5-Carboxamido-1,4-dihydro-4-(3-Methoxyphenyl)-2,6-dimethyl-3-(N-(3-(4,4-diphenylpiperidin-1-yl)propyl)carboxamido)-pyridine] |  | 562 nM | 212 to 213 °C |  |
